Data reported in patent US9493426B2, “Quinazolinone derivatives useful as FGFR kinase modulators” (priority 2013, dated 2016).
pIC50: −log10 of the molar value. Read-outs that look alike come from different tables or passages of the source.

How the values were obtained:
FGFR4 (h) = FGFR4 (h) (Homo sapiens, UniProt P22455); assay: FGFR4 (enzymatic assay), TR-FRET; type: biochemical; conditions: 5 μM ATP; pIC50 = -log IC50 (M); read-out: FGFR 4 pIC50 (converted)
[1] = molecular target: T1, Ba/F3-FGFR1-transfected cells (Homo sapiens, UniProt P11362); assay: Ba/F3-FGFR1 (minus IL3 or plus IL3) cellular proliferation assay; type: cell-based; conditions: 24 hours, Alamar Blue
T1 construct: other: minus IL3; 24 hours, Alamar Blue
T1 sequence (P11362 whole entry, change not shown): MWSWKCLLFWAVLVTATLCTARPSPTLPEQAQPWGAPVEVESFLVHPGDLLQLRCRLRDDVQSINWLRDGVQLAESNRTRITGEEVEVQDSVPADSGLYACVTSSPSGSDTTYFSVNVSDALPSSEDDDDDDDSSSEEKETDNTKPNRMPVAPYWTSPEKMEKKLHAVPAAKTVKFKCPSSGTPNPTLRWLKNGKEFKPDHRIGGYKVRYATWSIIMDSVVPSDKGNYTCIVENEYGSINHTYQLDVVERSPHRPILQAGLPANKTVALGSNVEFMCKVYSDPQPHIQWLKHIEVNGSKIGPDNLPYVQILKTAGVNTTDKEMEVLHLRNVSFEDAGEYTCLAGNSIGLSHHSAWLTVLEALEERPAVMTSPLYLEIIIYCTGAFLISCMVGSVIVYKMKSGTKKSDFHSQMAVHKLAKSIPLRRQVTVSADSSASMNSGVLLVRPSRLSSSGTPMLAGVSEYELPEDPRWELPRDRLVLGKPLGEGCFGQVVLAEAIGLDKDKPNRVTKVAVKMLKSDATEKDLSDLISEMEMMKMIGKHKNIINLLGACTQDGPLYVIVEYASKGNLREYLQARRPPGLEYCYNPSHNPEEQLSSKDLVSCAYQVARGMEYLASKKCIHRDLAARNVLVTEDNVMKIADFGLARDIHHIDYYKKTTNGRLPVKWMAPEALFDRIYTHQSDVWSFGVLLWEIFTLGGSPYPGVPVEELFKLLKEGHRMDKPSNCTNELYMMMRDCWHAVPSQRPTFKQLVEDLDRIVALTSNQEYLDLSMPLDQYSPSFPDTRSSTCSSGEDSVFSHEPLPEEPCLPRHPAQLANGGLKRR
Experimental: Ba/F3-FGFR1 (Minus IL3 or Plus IL3) (Cellular Proliferation Assay)
(§1) In a 384 well plate, 100 nl of compound dilution in DMSO was sprayed before adding 50 μl cell culture medium (phenol red free RPMI-1640, 10% FBS, 2 mM L-Glutamine and 50 μg/ml Gentamycin) containing 20000 cells per well of Ba/F3-FGFR1-transfected cells. Cells were put in an incubator at 37° C. and 5% CO2. After 24 hours, 10 μl of Alamar Blue solution (0.5 mM K3Fe(CN)6, 0.5 mM K4Fe(CN)6, 0.15 mM Resazurin and 100 mM Phosphate Buffer) was added to the wells, incubated for 4 hours at 37° C. and 5% CO2 before RFU's (Relative Fluorescence Units) (ex. 540 nm., em. 590 nm.) were measured in a fluorescence plate reader.
(§2) In this assay, the inhibitory effect of different compound concentrations (range 10 μM to 0.1 nM) was determined and used to calculate an IC50 (M) and pIC50 (−log IC50) value. As a counterscreen the same experiment was performed in the presence of 10 ng/ml murine IL3.

KDR (h) = KDR (h) (Homo sapiens, UniProt P35968); assay: KDR (VEGFR2) (enzymatic assay), TR-FRET; type: biochemical; conditions: 3 μM ATP; pIC50 = -log IC50 (M); read-out: VEGFR KDR pIC50 (converted)
Experimental: KDR (VEGFR2) (Enzymatic Assay)
In a final reaction volume of 30 μL, KDR (h) (150 ng/ml) was incubated with 50 mM HEPES pH 7.5, 6 mM MnCl2, 1 mM DTT, 0.1 mM Na3VO4, 0.01% Triton-X-100, 500 nM Btn-Flt3 and 3 μM ATP in the presence of compound (1% DMSO final). After incubation for 120 minutes at room temperature the reaction was stopped with 2.27 nM EU-anti P-Tyr, 7 mM EDTA, 31.25 nM SA-XL-665 and 0.02% BSA which was present for 60 minutes at room temperature. Time-Resolved Fluorescence Resonance Energy Transfer (TR-FRET) signal (ex340 nm. Em 620 nm, em 655 nm) was measured afterwards and results are expressed in RFU (Relative Fluorescence Units). In this assay, the inhibitory effect of different compound concentrations (range 10 μM to 0.1 nM) was determined and used to calculate an IC50 (M) and pIC50 (−log IC50) value.

[2] = molecular target: T2, Ba/F3-FGFR3-transfected cells (Homo sapiens, UniProt P22607, cells depend on it, form not given); assay: Ba/F3-FGFR3 (minus IL3 or plus IL3) cellular proliferation assay; type: cell-based; conditions: 24 hours, Alamar Blue
T2 construct: BAF3-FGFR3 (MIN IL3 pIC50); other: minus IL3; 24 hours, Alamar Blue
Experimental: Ba/F3-FGFR3 (Minus IL3 or Plus IL3) (Cellular Proliferation Assay)
as §1, with “Ba/F3-FGFR3-transfected” for “Ba/F3-FGFR1-transfected”
as §2

[3] = molecular target: Ba/F3-FGFR4-transfected cells (Homo sapiens, UniProt P22455, cells depend on it, form not given); assay: Ba/F3-FGFR4 cellular proliferation assay; type: cell-based; conditions: 24 hours, Alamar Blue
Experimental: Ba/F3-FGFR4 (Cellular Proliferation Assay)
as §1, with “Ba/F3-FGFR4-transfected” for “Ba/F3-FGFR1-transfected”
In this assay, the inhibitory effect of different compound concentrations (range 10 μM to 0.1 nM) was determined and used to calculate an IC50 (M) and pIC50 (−log IC50) value.

[4] = molecular target: T3, Ba/F3-KDR-transfected cells (Homo sapiens, UniProt P35968, cells depend on it, form not given); assay: Ba/F3-KDR (minus IL3 or plus IL3) cellular proliferation assay; type: cell-based; conditions: 24 hours, Alamar Blue
T3 construct: BAF3-KDR (MIN IL3 pIC50); other: minus IL3; 24 hours, Alamar Blue
T3 sequence (P35968 whole entry, looked up, change not shown): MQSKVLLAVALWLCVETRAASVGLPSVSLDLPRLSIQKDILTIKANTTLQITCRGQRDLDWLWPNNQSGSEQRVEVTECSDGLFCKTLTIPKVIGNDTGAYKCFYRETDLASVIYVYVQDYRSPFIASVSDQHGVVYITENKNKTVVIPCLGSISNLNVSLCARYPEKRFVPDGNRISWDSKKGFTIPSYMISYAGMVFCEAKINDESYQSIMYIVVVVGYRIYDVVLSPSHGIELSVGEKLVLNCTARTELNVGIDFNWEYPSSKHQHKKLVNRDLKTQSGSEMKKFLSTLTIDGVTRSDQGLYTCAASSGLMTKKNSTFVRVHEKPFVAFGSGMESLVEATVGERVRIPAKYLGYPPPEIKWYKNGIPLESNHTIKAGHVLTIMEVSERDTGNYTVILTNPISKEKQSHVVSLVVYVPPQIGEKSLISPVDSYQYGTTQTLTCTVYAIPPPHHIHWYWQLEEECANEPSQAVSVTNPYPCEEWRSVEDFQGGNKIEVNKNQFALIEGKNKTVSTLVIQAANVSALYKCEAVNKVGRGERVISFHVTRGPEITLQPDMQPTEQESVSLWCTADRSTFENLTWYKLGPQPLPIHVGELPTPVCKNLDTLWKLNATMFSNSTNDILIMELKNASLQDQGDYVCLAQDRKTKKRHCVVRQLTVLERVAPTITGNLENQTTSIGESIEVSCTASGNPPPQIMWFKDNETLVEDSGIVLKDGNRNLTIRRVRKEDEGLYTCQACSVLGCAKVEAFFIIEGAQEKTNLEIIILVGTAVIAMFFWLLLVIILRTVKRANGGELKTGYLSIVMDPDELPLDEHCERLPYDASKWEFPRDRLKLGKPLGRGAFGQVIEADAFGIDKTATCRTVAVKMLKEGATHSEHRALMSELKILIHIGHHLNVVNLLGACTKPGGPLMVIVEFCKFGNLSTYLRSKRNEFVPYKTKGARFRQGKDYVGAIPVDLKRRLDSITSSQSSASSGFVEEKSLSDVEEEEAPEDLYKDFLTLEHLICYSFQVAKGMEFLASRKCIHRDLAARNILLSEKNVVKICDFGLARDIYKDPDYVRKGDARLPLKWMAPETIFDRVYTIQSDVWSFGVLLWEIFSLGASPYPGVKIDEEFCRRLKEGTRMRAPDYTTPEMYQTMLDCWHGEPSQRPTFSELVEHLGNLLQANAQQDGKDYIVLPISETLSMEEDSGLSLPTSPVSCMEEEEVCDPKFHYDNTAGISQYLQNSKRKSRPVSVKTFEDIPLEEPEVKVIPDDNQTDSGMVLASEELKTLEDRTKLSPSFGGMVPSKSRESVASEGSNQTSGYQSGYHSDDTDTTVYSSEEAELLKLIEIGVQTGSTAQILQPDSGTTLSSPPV
Experimental: Ba/F3-KDR (Minus IL3 or Plus IL3) (Cellular Proliferation Assay)
as §1, with “Ba/F3-KDR-transfected” for “Ba/F3-FGFR1-transfected”
as §2

FGFR3 (h) = FGFR3 (h) (Homo sapiens, UniProt P22607); assay: FGFR3 (enzymatic assay), TR-FRET; type: biochemical; conditions: for IC50: 25 μM ATP, pIC50 = -log IC50 (M), read-out: FGFR3 pIC50 (converted)
FGFR1 (h) = FGFR1 (h) (Homo sapiens, UniProt P11362); assay: FGFR1 (enzymatic assay), TR-FRET; type: biochemical
Sequence of FGFR1 (h) (P11362 22-822): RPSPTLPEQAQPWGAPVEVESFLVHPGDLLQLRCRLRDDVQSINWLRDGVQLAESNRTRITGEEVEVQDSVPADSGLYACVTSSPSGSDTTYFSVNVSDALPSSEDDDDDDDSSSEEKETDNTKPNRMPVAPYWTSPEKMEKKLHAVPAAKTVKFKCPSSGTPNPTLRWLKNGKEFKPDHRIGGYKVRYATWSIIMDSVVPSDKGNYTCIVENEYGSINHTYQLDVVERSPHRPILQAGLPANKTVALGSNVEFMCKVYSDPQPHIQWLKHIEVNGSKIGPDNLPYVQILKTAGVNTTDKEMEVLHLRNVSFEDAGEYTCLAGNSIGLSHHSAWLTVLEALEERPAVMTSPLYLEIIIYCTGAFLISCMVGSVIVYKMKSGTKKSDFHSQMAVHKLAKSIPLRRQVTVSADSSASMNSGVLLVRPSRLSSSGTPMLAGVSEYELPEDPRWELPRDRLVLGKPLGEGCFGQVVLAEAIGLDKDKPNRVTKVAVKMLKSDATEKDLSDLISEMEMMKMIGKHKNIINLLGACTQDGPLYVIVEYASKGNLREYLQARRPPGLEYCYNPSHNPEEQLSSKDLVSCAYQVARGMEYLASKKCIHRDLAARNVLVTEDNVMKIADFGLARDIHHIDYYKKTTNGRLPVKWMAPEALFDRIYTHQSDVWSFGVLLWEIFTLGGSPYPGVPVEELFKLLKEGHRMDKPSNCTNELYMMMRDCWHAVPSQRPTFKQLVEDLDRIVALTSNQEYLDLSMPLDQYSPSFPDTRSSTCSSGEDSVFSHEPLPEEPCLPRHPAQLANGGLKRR

FGFR2 (h) = FGFR2 (h) (Homo sapiens, UniProt P21802); assay: FGFR2 (enzymatic assay), TR-FRET; type: biochemical; conditions: for IC50: 0.4 μM ATP, pIC50 = -log IC50 (M), read-out: FGFR 2 pIC50 (converted)
Sequence of FGFR2 (h) (P21802 22-821): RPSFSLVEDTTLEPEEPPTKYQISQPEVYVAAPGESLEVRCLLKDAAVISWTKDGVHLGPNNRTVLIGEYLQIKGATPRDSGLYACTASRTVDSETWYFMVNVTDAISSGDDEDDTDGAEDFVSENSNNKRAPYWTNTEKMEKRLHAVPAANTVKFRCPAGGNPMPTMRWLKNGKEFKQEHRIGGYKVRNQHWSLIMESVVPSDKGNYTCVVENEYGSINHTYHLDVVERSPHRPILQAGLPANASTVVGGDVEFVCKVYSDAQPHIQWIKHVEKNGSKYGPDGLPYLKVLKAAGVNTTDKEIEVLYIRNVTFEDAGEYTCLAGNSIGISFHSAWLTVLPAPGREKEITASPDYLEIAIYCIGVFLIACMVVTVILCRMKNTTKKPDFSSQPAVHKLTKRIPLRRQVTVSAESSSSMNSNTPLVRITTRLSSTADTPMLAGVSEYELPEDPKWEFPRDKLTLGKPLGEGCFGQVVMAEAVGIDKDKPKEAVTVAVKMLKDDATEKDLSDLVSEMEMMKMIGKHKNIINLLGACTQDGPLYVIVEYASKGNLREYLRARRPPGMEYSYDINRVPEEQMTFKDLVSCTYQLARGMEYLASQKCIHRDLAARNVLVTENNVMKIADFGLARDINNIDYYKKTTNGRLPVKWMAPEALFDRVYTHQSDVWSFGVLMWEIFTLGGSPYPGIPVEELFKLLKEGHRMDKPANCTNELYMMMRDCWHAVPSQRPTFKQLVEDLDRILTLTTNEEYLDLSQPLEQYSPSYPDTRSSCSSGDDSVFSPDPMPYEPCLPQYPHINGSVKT

Sequence of FGFR4 (h) (P22455 22-802): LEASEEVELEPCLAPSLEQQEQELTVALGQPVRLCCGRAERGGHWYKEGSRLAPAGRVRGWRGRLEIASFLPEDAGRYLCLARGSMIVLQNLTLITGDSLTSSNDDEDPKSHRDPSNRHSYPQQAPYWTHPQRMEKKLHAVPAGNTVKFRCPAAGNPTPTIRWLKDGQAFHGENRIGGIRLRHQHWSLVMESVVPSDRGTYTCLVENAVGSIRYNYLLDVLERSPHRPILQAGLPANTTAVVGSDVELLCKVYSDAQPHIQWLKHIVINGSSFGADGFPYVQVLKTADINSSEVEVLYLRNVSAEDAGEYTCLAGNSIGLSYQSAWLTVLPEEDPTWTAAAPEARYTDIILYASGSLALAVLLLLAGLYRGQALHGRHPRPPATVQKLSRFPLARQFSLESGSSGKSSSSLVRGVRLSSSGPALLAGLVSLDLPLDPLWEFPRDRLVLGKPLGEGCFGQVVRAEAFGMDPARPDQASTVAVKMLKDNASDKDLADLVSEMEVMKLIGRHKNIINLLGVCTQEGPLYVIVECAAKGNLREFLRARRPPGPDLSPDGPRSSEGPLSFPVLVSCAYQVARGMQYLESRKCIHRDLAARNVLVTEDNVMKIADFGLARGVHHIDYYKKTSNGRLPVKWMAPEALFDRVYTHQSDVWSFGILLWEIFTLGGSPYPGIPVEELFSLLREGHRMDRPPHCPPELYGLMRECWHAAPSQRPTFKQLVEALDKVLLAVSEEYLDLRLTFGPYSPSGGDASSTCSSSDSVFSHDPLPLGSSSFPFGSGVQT

| SMILES | IC50 (FGFR4 (h)) | melting point | BAF3-FGFR1 (MIN IL3 pIC50) [1] | IC50 (KDR (h)) | BAF3-FGFR3 (MIN IL3 pIC50) [2] | BAF3-FGFR4 (pIC50) [3] | BAF3-KDR (MIN IL3 pIC50) [4] | IC50 (FGFR3 (h)) | pIC50 (FGFR1 (h)) | pIC50 (FGFR2 (h)) | IC50 (FGFR2 (h)) | pIC50 (FGFR3 (h)) |
| --- | --- | --- | --- | --- | --- | --- | --- | --- | --- | --- | --- | --- |
| COc1cc(OC)c(F)c(N(Cc2ncc[nH]2)c2ccc3ncn(-c4cnn(C)c4)c(=O)c3c2)c1 [Compound 15] | 7.94e-09 M | 212 °C | 6.7 | 3.98e-07 M | ~7.15 | 5.8 | <5 | 2.51e-09 M | 8.30 | 8.30 | – | – |
| COc1cc(OC)cc(C(=O)c2ccc3ncn(-c4cnn(C)c4)c(=O)c3c2)c1 [Compound 24] | > 1e-06 M | 194 °C | <5 | > 1e-06 M | <5 | <5 | <5 | 7.94e-07 M | < 6.00 | – | 7.94e-07 M | – |
| COc1cc(OC)c(Cl)c(N(CCNC(C)C)c2ccc3ncn(-c4cnn(C)c4)c(=O)c3c2)c1Cl [Compound 11] | 1.58e-07 M | 195 °C | 7.4 | 5.01e-07 M | 7.3 | 6.3 | 5.4 | 3.98e-08 M | 7.90 | – | 6.31e-08 M | – |
| CNCCN(c1ccc2ncn(-c3cnn(C)c3)c(=O)c2c1)c1c(F)c(OC)cc(OC)c1F [Compound 20] | 2.51e-08 M | 141 °C | 7.6 | 1.58e-07 M | 7.6 | 6.7 | 6.0 | – | 8.00 | – | 1.26e-08 M | 7.90 |
| COc1cc(OC)c(F)c(N(CCNC(C)C)c2ccc3ncn(-c4ccccc4)c(=O)c3c2)c1F [Compound 2] | 3.98e-08 M | 124 °C | 7.7 | 2.51e-07 M | 7.6 | 6.3 | 5.7 | 2.51e-08 M | 8.20 | – | 2.51e-08 M | – |
| COc1cc(OC)c(F)c(N(CCO)c2ccc3ncn(-c4cnn(C)c4)c(=O)c3c2)c1 [Compound 16] | 2.51e-08 M | 164 °C | 6.3 | 2e-07 M | 6.4 | 5.7 | 5.2 | 2.51e-09 M | 7.90 | – | 5.01e-09 M | – |
| COc1cc(OC)cc(N(CCO)c2ccc3ncn(-c4cnn(C)c4)c(=O)c3c2)c1 [Compound 8] | 1.58e-07 M | 185 °C | 5.4 | 7.94e-07 M | 5.6 | 5.2 | <5 | 2e-08 M | 7.30 | – | 2.51e-08 M | – |
| COc1cc(OC)c(F)c(N(Cc2ncc[nH]2)c2ccc3ncn(-c4cnn(C)c4)c(=O)c3c2)c1F [Compound 22] | 5.01e-09 M | 231 °C | 6.8 | 1.26e-07 M | 7.4 | 6.7 | 5.3 | 3.16e-09 M | 8.40 | – | 5.01e-09 M | – |
| COc1cc(OC)c(F)c(N(CCO)c2ccc3ncn(-c4ccccc4)c(=O)c3c2)c1F [Compound 1] | 3.98e-08 M | 169 °C | 6.0 | 2.51e-07 M | 6.4 | 5.6 | ~5 | 6.31e-09 M | 8.00 | – | 6.31e-09 M | – |
| COc1cc(OC)c(F)c(N(CCNC(C)C)c2ccc3ncn(-c4cnn(C)c4)c(=O)c3c2)c1 [Compound 17] | 3.16e-08 M | 132 °C | 7.6 | 1.26e-07 M | 7.7 | 6.8 | 5.5 | 1.58e-08 M | 8.10 | – | 1e-08 M | – |
